PubChem BioAssay AID330 (DTP/NCI, 2004)
Toxic doses and inconclusive results are not listed. Rule for the calls: active = survival T/C of 150% or more; inactive = T/C below 125% in these data.

Tested on: P388 leukemia ip, CD2F1 mice, survival T/C
Assay: NCI In Vivo Anticancer Drug Screen. Data for tumor model P388 Leukemia (intraperitoneal) in CD2F1 (CDF1) mice
Settings: endpoint: median survival time, higher = longer survival
Method in brief: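 Mice carrying the transplanted tumor received test compound or vehicle. Survival was recorded in each group, and the value is the treated-group measurement divided by that of the vehicle-treated control group.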

[1] = dose: 50.0 mg/kg/injection, schedule: Q01DX005 (ip), vehicle: Klucel (hydroxypropylcellulose) (HPC)
[2] = dose: 100.0 mg/kg/injection, schedule: Q01DX005 (ip), vehicle: Klucel (hydroxypropylcellulose) (HPC)
[3] = dose: 50.0 mg/kg/injection, schedule: Q01DX005 (ip), vehicle: saline with Tween-80
[4] = dose: 100.0 mg/kg/injection, schedule: Q01DX005 (ip), vehicle: saline with Tween-80
[5] = dose: 200.0 mg/kg/injection, schedule: Q01DX005 (ip), vehicle: saline with Tween-80
[6] = dose: 100.0 mg/kg/injection, schedule: Q01DX009 (ip), vehicle: saline
[7] = dose: 50.0 mg/kg/injection, schedule: Q01DX009 (ip), vehicle: Klucel (hydroxypropylcellulose) (HPC)
[8] = dose: 100.0 mg/kg/injection, schedule: Q01DX009 (ip), vehicle: Klucel (hydroxypropylcellulose) (HPC)
[9] = dose: 200.0 mg/kg/injection, schedule: Q01DX009 (ip), vehicle: Klucel (hydroxypropylcellulose) (HPC)
[10] = dose: 60.0 mg/kg/injection, schedule: Q01DX005 (ip), vehicle: saline with Tween-80
[11] = dose: 120.0 mg/kg/injection, schedule: Q01DX005 (ip), vehicle: saline with Tween-80
[12] = dose: 240.0 mg/kg/injection, schedule: Q01DX005 (ip), vehicle: saline with Tween-80

Measured: T/C

O=c1ccccc(Br)c1O
inactive: dose: 25.0 mg/kg/injection, schedule: Q01DX005 (ip), vehicle: Klucel (hydroxypropylcellulose) (HPC) 100 % of control | [1] 106 % of control | [2] 106 % of control

COC1/C=C/OC2(C)Oc3c(C)c(O)c4c(O)c(c(/C=N/N(C)c5nc6c(N)ncnc6n5C5OC(CO)C(O)C5O)c(O)c4c3C2=O)NC(=O)C(C)=C/C=C/C(C)C(O)C(C)C(O)C(C)C(OC(C)=O)C1C (centres undefined)
inactive: dose: 50.0 mg/kg/injection, schedule: Q01DX009 (ip), vehicle: saline with Tween-80 101 % of control | dose: 100.0 mg/kg/injection, schedule: Q01DX009 (ip), vehicle: saline with Tween-80 97 % of control | dose: 200.0 mg/kg/injection, schedule: Q01DX009 (ip), vehicle: saline with Tween-80 101 % of control

S=C1SCN(CCc2c[nH]c3ccccc23)CN1CCc1c[nH]c2ccccc12
inactive: [3] 92 % of control | [4] 90 % of control | [5] 92 % of control

CCOC(=O)c1nc(C)[nH]c(=O)c1C
inactive: dose: 8.0 mg/kg/injection, schedule: Q01DX009 (ip), vehicle: water 100 % of control | dose: 16.0 mg/kg/injection, schedule: Q01DX009 (ip), vehicle: water 95 % of control | dose: 32.0 mg/kg/injection, schedule: Q01DX009 (ip), vehicle: water 100 % of control | dose: 64.0 mg/kg/injection, schedule: Q01DX009 (ip), vehicle: water 100 % of control | dose: 128.0 mg/kg/injection, schedule: Q01DX009 (ip), vehicle: water 98 % of control

CC(C=NC1CCCCC1)c1ccccc1 (centres undefined)
inactive: dose: 50.0 mg/kg/injection, schedule: Q01DX009 (ip), vehicle: saline 96 % of control | [6] 87 % of control | dose: 200.0 mg/kg/injection, schedule: Q01DX009 (ip), vehicle: saline 102 % of control

Cc1c(O)cccc1O
inactive: [6] 105 % of control

COc1ccc(CCNCc2cccc(O)c2)cc1OC
inactive: [7] 90 % of control | [8] 92 % of control | [9] 88 % of control

Cc1ccc(N2C(=O)CCSC2=S)cc1C
inactive: dose: 50.0 mg/kg/injection, schedule: Q01DX009 (ip), vehicle: suspension in saline 108 % of control | dose: 100.0 mg/kg/injection, schedule: Q01DX009 (ip), vehicle: suspension in saline 89 % of control | dose: 200.0 mg/kg/injection, schedule: Q01DX009 (ip), vehicle: suspension in saline 99 % of control

c1ccc(Cc2[nH]nc(-c3n[nH]c(Cc4ccccc4)c3-c3ccccc3)c2-c2ccccc2)cc1
inactive: [10] 101 % of control | [11] 103 % of control | [12] 102 % of control

CC(C)CC([NH-])C(=O)O.CC(C)CC([NH-])C(=O)O.CC(C)CC([NH-])C(=O)O.[Pr+3] (centres undefined)
inactive: [1] 107 % of control | [2] 102 % of control | dose: 200.0 mg/kg/injection, schedule: Q01DX005 (ip), vehicle: Klucel (hydroxypropylcellulose) (HPC) 98 % of control

Cc1cc2[nH]c3ccccc3n2c(=O)c1N=Nc1ccccc1
inactive: dose: 87.5 mg/kg/injection, schedule: Q04DX002 (ip), vehicle: Klucel (hydroxypropylcellulose) (HPC) 101 % of control | dose: 175.0 mg/kg/injection, schedule: Q04DX002 (ip), vehicle: Klucel (hydroxypropylcellulose) (HPC) 92 % of control | dose: 350.0 mg/kg/injection, schedule: Q04DX002 (ip), vehicle: Klucel (hydroxypropylcellulose) (HPC) 99 % of control

Cn1cnc2cc(N3CCCCC3)c([N+](=O)[O-])cc2c1=O
inactive: [7] 101 % of control | [8] 107 % of control | [9] 99 % of control

COC(=O)Cn1/c(=N\N=C\c2ccc([N+](=O)[O-])cc2)sc2ccccc21
inactive: dose: 12.5 mg/kg/injection, schedule: Q01DX001 (ip), vehicle: saline with Tween-80 86 % of control | dose: 25.0 mg/kg/injection, schedule: Q01DX001 (ip), vehicle: saline with Tween-80 86 % of control | dose: 50.0 mg/kg/injection, schedule: Q01DX001 (ip), vehicle: saline with Tween-80 92 % of control | dose: 400.0 mg/kg/injection, schedule: Q01DX001 (ip), vehicle: saline with Tween-80 90 % of control

O=C1Oc2ccccc2CC1C(=O)c1ccc([N+](=O)[O-])cc1 (centres undefined)
inactive: [3] 99 % of control | [4] 106 % of control | [5] 103 % of control

O=C(O)/C=C\c1c[nH]c2ccccc12
inactive: [10] 94 % of control | [11] 94 % of control | [12] 88 % of control

CCC[CH2][Sn]([CH2]CCC)([S]CC(=O)OCc1ccccc1)[S]CC(=O)OCc1ccccc1
inactive: dose: 12.5 mg/kg/injection, schedule: Q01DX001 (ip), vehicle: Klucel (hydroxypropylcellulose) (HPC) 108 % of control | dose: 25.0 mg/kg/injection, schedule: Q01DX001 (ip), vehicle: Klucel (hydroxypropylcellulose) (HPC) 116 % of control | dose: 50.0 mg/kg/injection, schedule: Q01DX001 (ip), vehicle: Klucel (hydroxypropylcellulose) (HPC) 108 % of control
